In patent US5274121A, “N-methyl-N-[4-(1-pyrrolidinyl)-2-butynyl]amide congeners as muscarinic agents” (priority 1992, dated 1993):
“Also recorded” adds a separate entry of the source. Like-named read-outs stand apart in the source and are kept apart here.

Tests used:
[1] = molecular target: T1, muscarinic receptors, SK-N-SH cell membranes (m4 AChR) (Homo sapiens, UniProt P20309); assay: Inhibition of [3H]-NMS binding to membranes from SK-N-SH cells; details: SK-N-SH cells; conc. of compounds = 100 μM
T1 construct: membranes from SK-N-SH cells; endogenous in cells; host or cells: SK-N-SH human neuroblastoma cells (crude membrane fraction)
T1 sequence (P20309 whole entry): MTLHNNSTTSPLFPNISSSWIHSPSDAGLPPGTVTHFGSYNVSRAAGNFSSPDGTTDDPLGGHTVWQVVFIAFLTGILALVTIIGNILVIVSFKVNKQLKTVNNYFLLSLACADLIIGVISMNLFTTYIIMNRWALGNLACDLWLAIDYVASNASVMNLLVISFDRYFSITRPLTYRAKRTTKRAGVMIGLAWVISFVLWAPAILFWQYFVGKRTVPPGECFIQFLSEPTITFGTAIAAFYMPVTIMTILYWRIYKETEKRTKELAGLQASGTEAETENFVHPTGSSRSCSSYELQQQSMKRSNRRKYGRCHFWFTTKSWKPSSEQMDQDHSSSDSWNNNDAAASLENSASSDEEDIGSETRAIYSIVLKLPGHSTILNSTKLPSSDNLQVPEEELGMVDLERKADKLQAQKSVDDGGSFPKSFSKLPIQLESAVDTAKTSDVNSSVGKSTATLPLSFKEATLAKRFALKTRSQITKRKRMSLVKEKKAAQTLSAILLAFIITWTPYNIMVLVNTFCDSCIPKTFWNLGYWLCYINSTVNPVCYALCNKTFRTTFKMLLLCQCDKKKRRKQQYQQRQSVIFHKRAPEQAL
Excerpt: (§1) Compounds of the present invention were screened for their biological activity. Assay systems using SK-N-SH human neuroblastoma cells which express only m4 -AChRs coupled to PI turnover, and NG108-15 neuroblastoma x glioma cells which express only m3 AChRs coupled to adenylate cyclase inhibition were used.
(§2) Compounds of the present invention were also screened for their relative binding affinities. Assay systems which measured the inhibition of ^3 H-N-methylscopolamine (^3 H-NMS) binding to membranes from NG108-15 cells and membranes from SK-N-SH cells were used.
(§3) Inhibition of [^3 H]-NMS binding
(§4) Cells were grown to confluence, harvested, and a crude membrane fraction was obtained. […] The total volume was 1 mL. The incubation was terminated by rapid filtration over GF/B filters using a Brandel cell harvester. The filters were washed three times with ice-cold 0.9% NaCl, equilibrated in scintillation counting fluid and counted on a Beckman LS 5801 liquid scintillation counter at 47% efficiency. Non-specific binding was determined by coincubation with 1 μM atropine, and amounted to less than 15% of total counts. It was routinely subtracted from the total counts.

[2] = system: NG108-15 neuroblastoma x glioma cells (m3 AChR); assay: Inhibition of PGE1-stimulated cAMP levels in NG108-15 cells; format: cell-based; details: for inhibition at 100 µM: relative to control with no compounds added, conc. of compounds = 100 μM, read-out: cAMP Inhib; for agonist activity, in words: Table I assays
Description: (§5) Compounds of the present invention were tested for their binding affinities and activation of second messengers in selective muscarinic cholinergic receptor systems. It is believed that m1 -, m4 -, and m5 AChRs couple exclusively to PI turnover, whereas m2 - and m3 -AChRs couple only to adenylate cyclase inhibition.
as §1
Inhibition of PGE1 -stimulated cAMP levels in NG108-15 cells
Cells were plated in 24-well plates and were grown to 90% confluence. The growth media was then replaced with a solution of 1 mM IBMX in DMEM-Hepes (0.5 mL per well) and the cells were incubated for 10 min at 37° C. Agonists were then added at a final concentration of 100 μM, along with PGE1 (final conc, 5 μM), and the cells were incubated for a further 15 min at 37° C. The reaction Was terminated by aspirating the solution and adding 0.5 mL of 0.1N HCl. In order to extract the cAMP from the cells, they were incubated in 0.1 N HCl for 30 min at room temperature. An aliquot (35 50 μL) was removed, lyophilized, and assayed for cAMP by radioimmunoassay.

[3] = system: SK-N-SH human neuroblastoma cells (m4 AChR); assay: Stimulation of PI turnover in SK-N-SH cells; format: cell-based; details: SK-N-SH cells; for Emax at 100 µM: Homo sapiens, 0.5 h, percent relative to the activity of OXO-M, conc. of compounds = 100 μM, read-out: Pi turnover
Description: as §5, §1
Stimulation of PI turnover in SK-N-SH cells
Cells were plated into 24-well plates at 100,000 cells per well. After 24 hours, they were labeled overnight with 2 μCi per well of [^3 H]-myo-inositol (American Radiolabeled Chemicals, Inc., St. Louis, Mo.; 15 Ci/mM; 2 μL of stock per mL of media). The cells were then rinsed twice with 10 mM LiCl in DMEM-Hepes and the cells were incubated in this solution for 5 min at 37° C. The indicated compound was then added at a final concentration of 100 μM and the cells were incubated for another 30 min at 37° C. The reaction was stopped by aspirating the solution and adding cold methanol to the cells. After transferring the cells to a glass tube and sonicating briefly, chloroform and water were added to make a two-phase system. The upper aqueous phase was applied to 0.6 mL anion exchange columns (AG X8, Bio-Rad) and the columns were washed and total inositol phosphates were eluted with 1M ammonium formate and 0.1M formic acid.

[4] = molecular target: T2, muscarinic receptors, NG108-15 cell membranes (m3 AChR) (Mus musculus, UniProt P32211); assay: Inhibition of [3H]-NMS binding to membranes from NG108-15 cells; details: for inhibition at 100 µM: NG108-15 cells, conc. of compounds = 100 μM; for binding to muscarinic receptors, in words: 3H-NMS binding, NG108-15 and SK-N-SH membranes
T2 construct: membranes from NG108-15 cells; endogenous in cells; host or cells: NG108-15 neuroblastoma x glioma hybrid cells (crude membrane fraction)
T2 sequence (P32211 1-479): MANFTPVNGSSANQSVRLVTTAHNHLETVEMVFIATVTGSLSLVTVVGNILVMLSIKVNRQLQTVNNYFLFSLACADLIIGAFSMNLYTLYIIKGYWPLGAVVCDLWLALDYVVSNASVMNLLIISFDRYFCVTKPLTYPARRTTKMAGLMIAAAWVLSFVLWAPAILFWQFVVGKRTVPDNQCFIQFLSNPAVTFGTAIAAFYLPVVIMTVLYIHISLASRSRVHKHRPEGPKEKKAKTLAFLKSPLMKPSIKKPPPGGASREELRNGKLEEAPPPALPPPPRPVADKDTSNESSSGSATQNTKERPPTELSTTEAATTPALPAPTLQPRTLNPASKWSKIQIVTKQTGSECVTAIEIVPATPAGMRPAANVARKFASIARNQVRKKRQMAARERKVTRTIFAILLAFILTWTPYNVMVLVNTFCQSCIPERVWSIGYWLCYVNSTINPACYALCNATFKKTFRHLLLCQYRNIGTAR
Excerpt: as §1, §2, §3, §4

SMILES: CN(CC#CCN1CCCC1)C(=O)CN [Compound 007, N-Methyl-N-[4-(1-pyrrolidinyl)-2-butynyl]-2-aminoacetamide]
- inhibition at 100 µM [1]: 17.3 ± 3.3%
- agonist selectivity, in words ([2]; NG108-15 (cAMP) versus SK-N-SH (PI turnover)): selective agonists
- inhibition at 100 µM ([2]; NG108-15, NG108-15 cells): 26.1 ± 1.6%
- agonist activity in NG108-15 cells (cAMP inhibition), in words ([2]; NG108-15 cells): most active as agonists in NG108-15 cells; also recorded: approximately half as active as the full agonist oxotremorine-M
- stimulation of PI turnover, in words [3]: inactive in SK-N-SH cells
- inhibition at 100 µM [4]: 23.5 ± 4%

SMILES: CN(CC#CCN1CCCC1)C(=O)CCCCCNC(=O)OC(C)(C)C [Compound 038]
- inhibition at 100 µM [1]: 39.1 ± 2.4%
- inhibition at 100 µM ([2]; NG108-15 cells): 0%
- inhibition at 100 µM [4]: 31.9 ± 0.9%

SMILES: CN(CC#CCN1CCCC1)C(=O)CCCNC(=O)OC(C)(C)C [Compound 020]
- inhibition at 100 µM [1]: 32.1 ± 0.7%
- inhibition at 100 µM ([2]; NG108-15 cells): 3.5 ± 1.7%
- inhibition at 100 µM [4]: 24.4 ± 2.5%

SMILES: CN(CC#CCN1CCCC1)C(=O)CCNC(=O)OC(C)(C)C [Compound 016]
- inhibition at 100 µM [1]: 45.1 ± 2.5%
- agonist activity in NG108-15 cells (cAMP inhibition), in words ([2]; NG108-15 cells): substantial activity
- inhibition at 100 µM ([2]; NG108-15 cells): 12.5 ± 2.7%
- inhibition at 100 µM [4]: 36.3 ± 3.1%

SMILES: CN(CC#CCN1CCCC1)C(=O)CCCN [Compound 021]
- inhibition at 100 µM [1]: 20 ± 1.5%
- inhibition at 100 µM ([2]; NG108-15, NG108-15 cells): 3.7 ± 2%
- inhibition at 100 µM [4]: 12.1 ± 2.2%

SMILES: CN(CC#CCN1CCCC1)C(=O)CNC(=O)OC(C)(C)C [Compound 006, N-Methyl-N-[4-(1-pyrrolidinyl)-2-butynyl]-2-(N-Boc-amino) acetamide]
- inhibition at 100 µM [1]: 40 ± 2.1%
- agonist activity in NG108-15 cells (cAMP inhibition), in words ([2]; NG108-15 cells): substantial activity
- inhibition at 100 µM ([2]; NG108-15 cells): 7 ± 2.9%
- inhibition at 100 µM [4]: 32.6 ± 1.5%

SMILES: CC(=O)NCCCCC(=O)N(C)CC#CCN1CCCC1 [Compound 040]
- inhibition at 100 µM [1]: 29.4 ± 1%
- inhibition at 100 µM ([2]; NG108-15 cells): 5.2 ± 2.2%
- inhibition at 100 µM [4]: 17.9 ± 7.9%

SMILES: CN(CC#CCN1CCCC1)C(=O)CCCCCCCN [Compound 046]
- inhibition at 100 µM [1]: 93.7 ± 1.8%
- inhibition at 100 µM ([2]; NG108-15 cells): 0%
- agonist activity, in words [2]: inactive as agonists
- binding to muscarinic receptors, in words [4]: most active
- inhibition at 100 µM [4]: 92.3 ± 3.2%

SMILES: CN(CC#CCN1CCCC1)C(=O)CCCCCCCNC(=O)OC(C)(C)C [Compound 043]
- inhibition at 100 µM [1]: 92.1 ± 1%
- inhibition at 100 µM ([2]; NG108-15 cells): 0%
- agonist activity, in words [2]: inactive as agonists
- binding to muscarinic receptors, in words [4]: most active
- inhibition at 100 µM [4]: 89 ± 2.5%

SMILES: CC(=O)NCCCC(=O)N(C)CC#CCN1CCCC1 [Compound 022]
- inhibition at 100 µM [1]: 15.6 ± 1.6%
- inhibition at 100 µM ([2]; NG108-15, NG108-15 cells): 8 ± 3.7%
- agonist activity in NG108-15 cells (cAMP inhibition), in words ([2]; NG108-15 cells): substantial activity
- Emax at 100 µM [3]: 14 ± 5%
- inhibition at 100 µM [4]: 19.1 ± 1.8%

SMILES: CC(=O)NCC(=O)N(C)CC#CCN1CCCC1 [Compound 010, N-Methyl-N-[4-(1-pyrrolidinyl)-2-butynyl]-2-(N-acetylamino)acetamide]
- inhibition at 100 µM [1]: 12.5 ± 2.8%
- inhibition at 100 µM ([2]; NG108-15, NG108-15 cells): 14.1 ± 2.3%
- agonist activity in NG108-15 cells (cAMP inhibition), in words ([2]; NG108-15 cells): substantial activity
- Emax at 100 µM [3]: 8 ± 3%
- inhibition at 100 µM [4]: 24 ± 5.4%

SMILES: CN(CC#CCN1CCCC1)C(=O)CCCNC(=O)CCNC(=O)OC(C)(C)C [Compound 053]
- inhibition at 100 µM [1]: 40%
- inhibition at 100 µM ([2]; NG108-15 cells): 0%
- inhibition at 100 µM [4]: 23%

SMILES: CC(=O)NCCCCCCC(=O)N(C)CC#CCN1CCCC1 [Compound 049]
- inhibition at 100 µM [1]: 24.6 ± 3.1%
- inhibition at 100 µM ([2]; NG108-15 cells): 6.9 ± 2.9%
- inhibition at 100 µM [4]: 20.4 ± 5.5%
